From ChEMBL document CHEMBL2417444, “Synthesis and study of 1-ethyl-3-carbohydrazide and 3-[1-oxo-2-hydrazino-3-{p-toluenesulfon}]quinolone derivatives against bacterial infections” (2013)
≈ marks a conversion by molar mass, not a printed value.

Assays:
Escherichia coli = assay: Antibacterial activity against enterotoxigenic Escherichia coli by disc diffusion method; type: functional
Staphylococcus aureus = assay: Antibacterial activity against Staphylococcus aureus by disc diffusion method; type: functional
Salmonella typhi [1] = assay: Antibacterial activity against Salmonella typhi by disc diffusion method; type: functional, Salmonella enterica subsp. enterica serovar Typhi; settings: Salmonella enterica
Pseudomonas aeruginosa = assay: Antibacterial activity against Pseudomonas aeruginosa by disc diffusion method; type: functional
Salmonella typhi [2] = assay: Ratio of norfloxacin MIC to compound MIC against Salmonella typhi; type: functional, Salmonella enterica subsp. enterica serovar Typhi

SMILES	MIC (Escherichia coli)	MIC (Staphylococcus aureus)	MIC (Salmonella typhi [1])	MIC (Pseudomonas aeruginosa)	Ratio (Salmonella typhi [2])
CCn1cc(C(=O)NNS(=O)(=O)c2ccc(C)cc2)c(=O)c2ccccc21	0.125 µg/mL (≈ 0.324 µM)	0.0625 µg/mL (≈ 0.162 µM)	0.0625 µg/mL (≈ 0.162 µM)	0.0625 µg/mL (≈ 0.162 µM)	4
CCn1cc(C(=O)NNS(=O)(=O)c2ccc(C)cc2)c(=O)c2cc(F)ccc21	0.0625 µg/mL (≈ 0.155 µM)	0.0625 µg/mL (≈ 0.155 µM)	0.0625 µg/mL (≈ 0.155 µM)	0.0625 µg/mL (≈ 0.155 µM)	4
CCn1cc(C(=O)NNS(=O)(=O)c2ccc(C)cc2)c(=O)c2cc(Cl)ccc21	0.0625 µg/mL (≈ 0.149 µM)	0.0625 µg/mL (≈ 0.149 µM)	0.0625 µg/mL (≈ 0.149 µM)	0.0625 µg/mL (≈ 0.149 µM)	4
CCn1cc(C(=O)NNS(=O)(=O)c2ccc(C)cc2)c(=O)c2ccc(Cl)cc21	0.0625 µg/mL (≈ 0.149 µM)	0.0625 µg/mL (≈ 0.149 µM)	0.125 µg/mL (≈ 0.298 µM)	0.0625 µg/mL (≈ 0.149 µM)	2
CCn1cc(C(=O)NNS(=O)(=O)c2ccc(C)cc2)c(=O)c2cc(F)c(Cl)cc21	0.0625 µg/mL (≈ 0.143 µM)	0.0625 µg/mL (≈ 0.143 µM)	0.0625 µg/mL (≈ 0.143 µM)	0.0625 µg/mL (≈ 0.143 µM)	4
CCn1cc(C(=O)NN)c(=O)c2ccccc21	0.0625 µg/mL (≈ 0.27 µM)	0.0625 µg/mL (≈ 0.27 µM)	0.0625 µg/mL (≈ 0.27 µM)	0.0625 µg/mL (≈ 0.27 µM)	4
CCn1cc(C(=O)NN)c(=O)c2cc(F)ccc21	0.125 µg/mL (≈ 0.502 µM)	0.0625 µg/mL (≈ 0.251 µM)	0.0625 µg/mL (≈ 0.251 µM)	0.0625 µg/mL (≈ 0.251 µM)	4
CCn1cc(C(=O)NN)c(=O)c2cc(Cl)ccc21	0.25 µg/mL (≈ 0.941 µM)	0.0625 µg/mL (≈ 0.235 µM)	0.0625 µg/mL (≈ 0.235 µM)	0.0625 µg/mL (≈ 0.235 µM)	4
CCn1cc(C(=O)NN)c(=O)c2ccc(Cl)cc21	0.0625 µg/mL (≈ 0.235 µM)	0.0625 µg/mL (≈ 0.235 µM)	0.0625 µg/mL (≈ 0.235 µM)	0.0625 µg/mL (≈ 0.235 µM)	4
CCn1cc(C(=O)NN)c(=O)c2cc(F)c(Cl)cc21	0.0625 µg/mL (≈ 0.22 µM)	0.0625 µg/mL (≈ 0.22 µM)	0.0625 µg/mL (≈ 0.22 µM)	0.0625 µg/mL (≈ 0.22 µM)	4
O=C(O)c1cn(C2CC2)c2cc(N3CCNCC3)c(F)cc2c1=O [CIPROFLOXACIN]	0.0625 µg/mL (≈ 0.189 µM)	0.0625 µg/mL (≈ 0.189 µM)	0.0625 µg/mL (≈ 0.189 µM)	0.0625 µg/mL (≈ 0.189 µM)	–
CCn1cc(C(=O)O)c(=O)c2cc(F)c(N3CCNCC3)cc21 [NORFLOXACIN]	0.0625 µg/mL (≈ 0.196 µM)	0.0625 µg/mL (≈ 0.196 µM)	0.25 µg/mL (≈ 0.783 µM)	0.0625 µg/mL (≈ 0.196 µM)	–
